Tests used:
[1] = test system: murine lung exposed to bleomycin; assay: Treatment of bleomycin-exposed mice with CT474 (post-disease modeling of lung fibrosis); type: in vivo, mice (C57B6 WT); settings: treated from days 7 to 13, vehicle vs CT474, N=13-15 per group
Description: “Vehicle” as used herein is the substance used as a carrier for the pharmaceutical agent to include aqueous solutions or oils. Oils are derived from petroleum, animal, vegetable or synthetic origin, such as peanut oil. In FIGS. 5-7 signify “veh” signify vehicle. Flow cytometry of peripheral blood buffy coat after being treated with either vehicle or CT474. Pre-mortem Pressure-Volume curve using Sireq Flexivent in murine lung exposed to bleomycin then treated from days 7 to 13 with vehicle or CT474 is shown in FIG. 6. Soluble collagen measured by Sircol assay in murine lung (C57B6 WT) exposed to bleomycin then treated from days 7 to 13 with vehicle (n=15) or […] (n=13) is shown in FIG. 7. Statistical calculations were performed using from repeated measures. Analysis of variation (ANOVA) was used to determine differences between groups.

[2] = test system: Klebsiella pneumoniae strain 43816; assay: Minimal inhibitory concentration (MIC) method, growth of Klebsiella pneumoniae in tryptic soy broth; type: cell-based
Procedure: FIG. 3 show CFU of Klebsiella pneumoniae cultured in tryptic soy broth at 37° C. for 24 h with 0, 10 nM, 100 nM, 1 μM, and 10 μM CT474 dissolved in 1% Dimethyl sulfoxide (DMSO).
Microorganisms: Klebsiella pneumoniae strain 43816 (American Type Culture Collection, Manassas, Va.) was used for the studies.
The minimal inhibitory concentration (MIC) method was used to characterize the in vitro efficacy of the compound as shown in the FIG. 3. Briefly, Klebsiella pneumoniae strain 43816 (American Type Culture Collection, Manassas, Va.) was grown overnight at 37° C. to mid-log phase in tryptic soy broth. CT474 was initially suspended with DMSO, then diluted in the culture broth with final concentrations of CT474 at 0 nM (1% DMSO alone), 10 nM, 100 nM, 1 μM, and 10 μM with 10,000 CFU Klebsiella pneumoniae in 10 mL tryptic soy broth. OD600 was measured 24 h later, then the CFU was determined using a standard curve.
Statistical calculations were performed using from repeated measures. Analysis of variation (ANOVA) was used to determine differences between groups.

Compound: CO[C@H]1C[C@@H](C)C/C(C)=C/[C@@H](C/C=C/c2cc3ccccc3c3ccccc23)C(=O)C[C@H](O)[C@@H](C)[C@@H](/C(C)=C/[C@@H]2CC[C@@H](O)[C@H](OC)C2)OC(=O)[C@@H]2CCCCN2C(=O)C(=O)[C@]2(O)O[C@H]1[C@@H](OC)C[C@H]2C [CT474]
- fibrotic lung damage [1]: significant reduction
- effect on the growth of Klebsiella pneumoniae (CFU determined from OD600) ([2]; 10 nM, 100 nM, 1 μM, 10 μM CT474 in 1% DMSO, tryptic soy broth, 37° C., 24 h, 10,000 CFU inoculum): increasingly suppressive effects
- colony forming units (CFU) of Klebsiella pneumoniae ([2]; increase in concentration of CT474 from 10 nM upto 1 μM): consecutive decrease

Reference: patent publication US11666560B2, “Anti-fibrotic agent” (George Mason University, priority 2020, dated 2023)
